Article PMC4256047, “Structural and Functional Profiling of Environmental Ligands for Estrogen Receptors” (Environmental Health Perspectives, 2014)
Primed or numbered codes have the meaning given here. Where no end group is shown, it is not given here. fluorescein″ = fluorescein label on the peptide (N-terminal, fluorescein-labeled peptide)

Key:
[1] = biological target: T1, wild-type ERα LBD (Homo sapiens, UniProt P03372); assay: fluorescence anisotropy, SRC-1 NR2 peptide recruitment by ERα LBD; conditions: class from Kd of SRC-1 peptide for ERα LBD
T1 sequence (P03372 302-552): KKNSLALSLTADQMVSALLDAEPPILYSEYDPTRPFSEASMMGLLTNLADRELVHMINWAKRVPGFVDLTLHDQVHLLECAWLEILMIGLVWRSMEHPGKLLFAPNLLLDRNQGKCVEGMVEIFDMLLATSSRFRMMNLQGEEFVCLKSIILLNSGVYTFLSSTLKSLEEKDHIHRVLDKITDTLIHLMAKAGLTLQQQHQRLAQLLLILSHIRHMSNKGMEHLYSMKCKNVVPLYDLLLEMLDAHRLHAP

[2] = biological target: wild-type ERβ LBD (Homo sapiens, UniProt Q92731); assay: fluorescence anisotropy, SRC-1 NR2 peptide recruitment by ERβ LBD; conditions: class from Kd of SRC-1 peptide for ERβ LBD
[3] = biological target: human ERβ (Homo sapiens, UniProt Q92731); assay: HGELN-ERβ luciferase transactivation assay; conditions: full-length receptor
[4] = tested on: ΔAB-ERβ; assay: HGELN-ΔAB-ERβ luciferase transactivation assay
[5] = biological target: T2, human ERα (Homo sapiens, UniProt P03372); assay: HGELN-ERα luciferase transactivation assay; conditions: for relative activation of the two ER subtypes: HGELN-ERα versus HGELN-ERβ, full-length receptors; for agonistic potential in words, FL-ERα: HGELN-ERα, full-length receptor
T2 sequence (P03372 1-595): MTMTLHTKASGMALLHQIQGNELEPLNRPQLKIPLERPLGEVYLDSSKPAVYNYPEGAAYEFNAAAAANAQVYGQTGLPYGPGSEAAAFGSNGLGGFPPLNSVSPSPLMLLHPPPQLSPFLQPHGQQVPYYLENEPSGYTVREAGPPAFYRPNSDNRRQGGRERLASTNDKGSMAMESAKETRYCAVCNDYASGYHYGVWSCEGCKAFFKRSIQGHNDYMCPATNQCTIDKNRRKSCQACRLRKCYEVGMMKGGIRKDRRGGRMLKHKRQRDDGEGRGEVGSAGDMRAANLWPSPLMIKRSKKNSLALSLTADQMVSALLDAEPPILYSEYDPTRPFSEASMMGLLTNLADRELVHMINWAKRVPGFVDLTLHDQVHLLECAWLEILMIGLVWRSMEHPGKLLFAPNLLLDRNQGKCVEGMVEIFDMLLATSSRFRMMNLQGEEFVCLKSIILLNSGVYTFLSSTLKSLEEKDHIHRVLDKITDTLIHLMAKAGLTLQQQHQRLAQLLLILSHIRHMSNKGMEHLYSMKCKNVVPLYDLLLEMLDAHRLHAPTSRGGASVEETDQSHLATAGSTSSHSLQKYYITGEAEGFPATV

[6] = tested on: ΔAB-ERα; assay: HGELN-ΔAB-ERα luciferase transactivation assay
[7] = tested on: ER; set-up: method as in Wilson et al. 2004; conditions: ref Wilson et al. 2004; cited from earlier work
[8] = biological target: T3, wt-ERα LBD (wild-type estrogen receptor α ligand-binding domain, amino acids 302–552) (human, UniProt P03372 302-552); assay: fluorescence polarisation; fluorescence anisotropy as a1, with 4-OP at 2 molar equivalents of the highest protein concentration; conditions: both partners purified
T3 construct: also called wild-type ERα LBD; apo-ERα
T3 sequence (looked up): T1 sequence (P03372 302-552)

[9] = biological target: T4, wt-ERβ LBD (wild-type estrogen receptor β ligand-binding domain, amino acids 261–502) (human, UniProt Q92731 261-502); assay: fluorescence polarisation; fluorescence anisotropy as a1, with BP-2 at 2 molar equivalents of the highest protein concentration; conditions: both partners purified
T4 construct: also called wild-type ERβ LBD; apo-ERβ

[10] = biological target: T3, wt-ERα LBD (wild-type estrogen receptor …); assay: fluorescence polarisation; fluorescence anisotropy as a1, with α-ZA at 2 molar equivalents of the highest protein concentration; conditions: both partners purified
[11] = biological target: T4, wt-ERβ LBD (wild-type estrogen receptor …); assay: as above; conditions: both partners purified

Chain of wild-type ERβ LBD (Q92731 261-502): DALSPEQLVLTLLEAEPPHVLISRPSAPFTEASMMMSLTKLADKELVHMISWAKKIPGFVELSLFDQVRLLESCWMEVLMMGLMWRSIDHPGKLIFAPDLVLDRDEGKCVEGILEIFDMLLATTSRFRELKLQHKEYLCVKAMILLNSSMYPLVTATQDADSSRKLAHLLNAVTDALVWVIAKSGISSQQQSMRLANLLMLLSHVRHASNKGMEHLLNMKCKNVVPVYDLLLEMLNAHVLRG
T4 sequence (Q92731 261-502): as above
Chain of human ERβ (Q92731 whole entry): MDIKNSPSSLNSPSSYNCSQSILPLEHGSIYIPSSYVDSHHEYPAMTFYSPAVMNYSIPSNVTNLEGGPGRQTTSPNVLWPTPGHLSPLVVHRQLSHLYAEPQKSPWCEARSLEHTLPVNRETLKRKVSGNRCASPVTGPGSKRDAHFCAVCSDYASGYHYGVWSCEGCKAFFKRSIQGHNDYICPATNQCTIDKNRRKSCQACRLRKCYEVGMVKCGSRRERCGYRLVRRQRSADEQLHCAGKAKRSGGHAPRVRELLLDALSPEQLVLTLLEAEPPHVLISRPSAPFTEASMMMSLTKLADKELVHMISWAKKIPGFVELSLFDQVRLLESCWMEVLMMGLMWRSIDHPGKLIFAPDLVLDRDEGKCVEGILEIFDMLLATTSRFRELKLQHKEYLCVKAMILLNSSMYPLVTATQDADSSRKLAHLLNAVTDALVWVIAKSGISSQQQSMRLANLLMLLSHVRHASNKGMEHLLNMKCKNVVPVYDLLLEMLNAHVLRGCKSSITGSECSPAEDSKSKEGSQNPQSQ

CC(C)(c1ccc(O)cc1)c1ccc(O)cc1 [BPA, bisphenol A]
ligand class by SRC-1 peptide recruitment, ERα [1]: partial agonists (partial agonists (1 μM ≤ Kd ≤ values for apo-ERα or -ERβ))
ligand class by SRC-1 peptide recruitment, ERβ [2]: partial agonists (partial agonists (1 μM ≤ Kd ≤ values for apo-ERα or -ERβ))

CC(C)(c1cc(Cl)c(O)c(Cl)c1)c1cc(Cl)c(O)c(Cl)c1 [TCBPA, tetrachlorobisphenol A]
agonistic potential in words, FL-ERβ [3]: ERβ antagonists
agonistic potential in words, ΔAB-ERβ [4]: ERβ antagonists

Oc1ccc(C(=C(Cl)Cl)c2ccc(O)cc2)cc1 [BPC, bisphenol C]
relative activation of the two ER subtypes [5]: activated ERα more efficiently than ERβ

CC(C)(C)CC(C)(C)c1ccc(O)cc1 [4-OP, 4-tert-octylphenol]
ligand class by SRC-1 peptide recruitment, ERβ [2]: partial agonists (partial agonists (1 μM ≤ Kd ≤ values for apo-ERα or -ERβ))

CCCCOC(=O)c1ccc(O)cc1 [Butylparaben, butylparaben]
ligand class by SRC-1 peptide recruitment, ERβ [2]: partial agonists (partial agonists (1 μM ≤ Kd ≤ values for apo-ERα or -ERβ))

O=C(c1ccc(O)cc1O)c1ccc(O)cc1O [BP-2, benzophenone-2]
relative activation of the two ER subtypes [5]: activated the two ER subtypes equally
agonistic potential in words, FL-ERα [5]: full agonist
agonistic potential in words, FL-ERβ [3]: full agonist
agonistic potential in words, ΔAB-ERα ([6]; HGELN-ΔAB-ERα): full agonist
AF-1 dependence of activity ([6]; full-length versus ΔAB (AF-1 deleted) ERs): fully AF-1–independent activity
agonistic potential in words, ΔAB-ERβ [4]: full agonist
ligand class by SRC-1 peptide recruitment, ERα [1]: strong agonists (strong agonists (Kd ≤ 1 μM))
ligand class by SRC-1 peptide recruitment, ERβ [2]: strong agonists (strong agonists (Kd ≤ 1 μM))

C[C@H]1CCC[C@H](O)CCCCCc2cc(O)cc(O)c2C(=O)O1 [α-ZA, α-zearalanol]
agonistic potential in words, FL-ERα [5]: efficiently activated
ligand class by SRC-1 peptide recruitment, ERα [1]: strong agonists (strong agonists (Kd ≤ 1 μM))

Oc1ccc(C(c2ccc(O)cc2)C(Cl)(Cl)Cl)cc1 [HPTE, 2,2-bis(p-hydroxyphenyl)-1,1,1-trichloroethane]
ER activity reported in other studies [7]: agonistic properties

ClC(Cl)=C(c1ccc(Cl)cc1)c1ccc(Cl)cc1 [DDE, dichlorodiphenyldichloroethylene]
ligand class by SRC-1 peptide recruitment, ERα [1]: partial agonists (partial agonists (1 μM ≤ Kd ≤ values for apo-ERα or -ERβ))

B1: fluorescein-RHKILHRLLQEGS peptide corresponding to the NR box 2-binding motif of SRC-1 (peptide)
peptide: {fluorescein″}-RHKILHRLLQEGS
notes: also called fluorescein-labeled SRC-1 NR2 peptide; SRC-1 NR2 peptide; source: synthetic peptide, bought: EZbiolab
Kd [8]: ≥ 1000 nM
Kd [9]: ≤ 1000 nM
Kd [10]: ≤ 1000 nM
Kd [11]: ≥ 1000 nM
